In patent US11891365B2, “3-alkyl-4-amido-bicyclic [4,5,0] hydroxamic acids as HDAC inhibitors” (Valo Health, Inc., priority 2015, dated 2024):

Biological target: T1, Full length human recombinant HDAC6 protein (Homo sapiens, UniProt Q9UBN7)
T1 sequence (Q9UBN7 1-1215): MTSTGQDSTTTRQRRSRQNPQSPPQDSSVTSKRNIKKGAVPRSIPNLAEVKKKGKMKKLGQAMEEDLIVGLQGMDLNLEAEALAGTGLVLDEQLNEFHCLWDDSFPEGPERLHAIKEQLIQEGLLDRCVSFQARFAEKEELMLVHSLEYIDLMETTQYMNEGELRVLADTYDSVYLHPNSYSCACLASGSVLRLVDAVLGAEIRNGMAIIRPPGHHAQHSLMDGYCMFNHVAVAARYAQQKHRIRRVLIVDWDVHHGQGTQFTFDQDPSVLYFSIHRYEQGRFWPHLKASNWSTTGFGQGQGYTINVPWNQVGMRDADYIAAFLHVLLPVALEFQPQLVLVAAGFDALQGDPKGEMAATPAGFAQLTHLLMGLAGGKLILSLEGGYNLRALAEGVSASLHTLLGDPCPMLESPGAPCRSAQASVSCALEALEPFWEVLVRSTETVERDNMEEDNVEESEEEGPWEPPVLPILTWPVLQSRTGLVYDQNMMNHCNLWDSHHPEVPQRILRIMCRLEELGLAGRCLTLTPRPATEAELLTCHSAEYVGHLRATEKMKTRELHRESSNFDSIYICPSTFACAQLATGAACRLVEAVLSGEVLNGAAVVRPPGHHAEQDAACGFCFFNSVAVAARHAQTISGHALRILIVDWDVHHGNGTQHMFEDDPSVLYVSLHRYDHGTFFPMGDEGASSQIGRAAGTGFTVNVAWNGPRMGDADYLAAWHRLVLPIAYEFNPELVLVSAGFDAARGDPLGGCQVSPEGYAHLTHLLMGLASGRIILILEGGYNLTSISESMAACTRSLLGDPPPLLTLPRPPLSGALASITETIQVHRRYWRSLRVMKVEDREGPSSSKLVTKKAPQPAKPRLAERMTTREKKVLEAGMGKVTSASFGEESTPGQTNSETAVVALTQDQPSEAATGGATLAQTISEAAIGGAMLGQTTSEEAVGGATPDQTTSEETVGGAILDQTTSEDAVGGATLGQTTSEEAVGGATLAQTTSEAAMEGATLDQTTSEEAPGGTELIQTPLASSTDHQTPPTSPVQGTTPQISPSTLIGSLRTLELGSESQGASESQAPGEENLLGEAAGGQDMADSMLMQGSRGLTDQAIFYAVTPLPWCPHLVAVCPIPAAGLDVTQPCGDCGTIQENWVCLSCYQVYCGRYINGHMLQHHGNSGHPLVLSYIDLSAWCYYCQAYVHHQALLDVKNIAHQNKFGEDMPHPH
Experiment: In vitro histone deacetylase assay: enzymatic HDAC6 electrophoretic mobility shift assay
Type: biochemical
Details: 1 nM enzyme, 2 μM peptide substrate RHKK(Ac)-NH2, 25° C., 12 concentrations; read-out: Inhibitory Concentration (IC50) Values against HDAC6, Activity Range

Row | Structure (SMILES) | IC50 [nM]
1 | O=CN1Cc2ccc(C(=O)NO)cc2O[C@H](c2ccccc2)C1 [(R)-4-formyl-N-hydroxy-2-phenyl-2,3,4,5-tetrahydrobenzo[f][1,4]oxazepine-8-carboxamide] | ≤ 100
2 | C[C@@H]1COc2cc(C(=O)NO)ccc2CN1C=O [(R)-4-formyl-N-hydroxy-3-methyl-2,3,4,5-tetrahydrobenzo[f][1,4]oxazepine-8-carboxamide] | ≤ 100
3 | COC1(C(=O)N2Cc3ccc(C(=O)NO)cc3OC[C@@H]2C)CC1 [(S)-N-hydroxy-4-(1-methoxycyclopropane-1-carbonyl)-3-methyl-2,3,4,5-tetrahydrobenzo[f][1,4]oxazepine-8-carboxamide] | ≤ 100
4 | C[C@H]1c2cc(C(=O)NO)ccc2OCCN1C(=O)C1CCOCC1 [(S)-N-hydroxy-5-methyl-4-(tetrahydro-2H-pyran-4-carbonyl)-2,3,4,5-tetrahydrobenzo[f][1,4]oxazepine-7-carboxamide] | > 500
5 | Cn1c(C(=O)N2CCOc3cc(C(=O)NO)ccc3C2)cc2ccccc21 [N-hydroxy-4-(1-methyl-1H-indole-2-carbonyl)-2,3,4,5-tetrahydrobenzo[f][1,4]oxazepine-8-carboxamide] | ≤ 100
6 | C[C@H]1COc2cc(C(=O)NO)ccc2CN1C(=O)c1nc2ccccc2[nH]1 [(S)-4-(1H-benzo[d]imidazole-2-carbonyl)-N-hydroxy-3-methyl-2,3,4,5-tetrahydrobenzo[f][1,4]oxazepine-8-carboxamide] | ≤ 100
7 | O=C(NO)c1ccc2c(c1)OCCN(C(=O)C1(c3cccc(Cl)c3)CC1)C2 [4-(1-(3-chlorophenyl)cyclopropane-1-carbonyl)-N-hydroxy-2,3,4,5-tetrahydrobenzo[f][1,4]oxazepine-8-carboxamide] | ≤ 100
8 | O=C(NO)c1ccc2c(c1)OCCN(C(=O)C(c1ccccc1)N1CCCCC1=O)C2 (centres unmarked) [N-hydroxy-4-(2-(2-oxopiperidin-1-yl)-2-phenylacetyl)-2,3,4,5-tetrahydrobenzo[f][1,4]oxazepine-8-carboxamide] | 100 to 500
9 | O=C(NO)c1ccc2c(c1)OCCN(C(=O)C1Cc3ccccc3C1)C2 [4-(2,3-dihydro-1H-indene-2-carbonyl)-N-hydroxy-2,3,4,5-tetrahydrobenzo[f][1,4]oxazepine-8-carboxamide] | ≤ 100
10 | C[C@H]1c2ccc(C(=O)NO)cc2OCCN1C(=O)[C@]1(C)CCCOC1 [(S)-N-hydroxy-5-methyl-4-((R)-3-methyltetrahydro-2H-pyran-3-carbonyl)-2,3,4,5-tetrahydrobenzo[f][1,4]oxazepine-8-carboxamide] | ≤ 100
11 | C[C@H]1COc2cc(C(=O)NO)ccc2CN1C(=O)[C@@H]1CCCCO1 [(S)-N-hydroxy-3-methyl-4-((S)-tetrahydro-2H-pyran-2-carbonyl)-2,3,4,5-tetrahydrobenzo[f][1,4]oxazepine-8-carboxamide] | ≤ 100
12 | O=CN1CCOc2cc(C(=O)NO)ccc2C1 [4-formyl-N-hydroxy-2,3,4,5-tetrahydrobenzo[f][1,4]oxazepine-8-carboxamide] | ≤ 100
13 | C[C@H]1COc2cc(C(=O)NO)ccc2CN1C(=O)C1CCOCC1 [(S)-N-hydroxy-3-methyl-4-(tetrahydro-2H-pyran-4-carbonyl)-2,3,4,5-tetrahydrobenzo[f][1,4]oxazepine-8-carboxamide] | ≤ 100
14 | CC(=O)N1CCC(C(=O)N2Cc3ccc(C(=O)NO)cc3OC[C@@H]2C)CC1 [(S)-4-(1-acetylpiperidine-4-carbonyl)-N-hydroxy-3-methyl-2,3,4,5-tetrahydrobenzo[f][1,4]oxazepine-8-carboxamide] | ≤ 100
15 | Cc1nnnn1C(C(=O)N1CCOc2cc(C(=O)NO)ccc2C1)c1ccccc1 (centres unmarked) [N-hydroxy-4-(2-(5-methyl-1H-tetrazol-1-yl)-2-phenylacetyl)-2,3,4,5-tetrahydrobenzo[f][1,4]oxazepine-8-carboxamide] | 100 to 500
16 | C[C@H]1COc2cc(C(=O)NO)ccc2CN1C(=O)C(C)(C)c1cccnc1 [(S)-N-hydroxy-3-methyl-4-(2-methyl-2-(pyridin-3-yl)propanoyl)-2,3,4,5-tetrahydrobenzo[f][1,4]oxazepine-8-carboxamide] | ≤ 100

Row | Structure (SMILES) | IC50 [nM]
17 | O=C(NO)c1ccc2c(c1)OCCN(C(=O)C1CC13CCNC3)C2 (centres unmarked) [N-hydroxy-4-(5-azaspiro[2.4]heptane-1-carbonyl)-2,3,4,5-tetrahydrobenzo[f][1,4]oxazepine-8-carboxamide] | > 500
18 | COCC(C)(C)C(=O)N1CCOc2cc(C(=O)NO)ccc2C1 [N-hydroxy-4-(3-methoxy-2,2-dimethylpropanoyl)-2,3,4,5-tetrahydrobenzo[f][1,4]oxazepine-8-carboxamide] | ≤ 100
19 | CN(CC(=O)N1CCOc2cc(C(=O)NO)ccc2C1)S(C)(=O)=O [N-hydroxy-4-(N-methyl-N-(methylsulfonyl)glycyl)-2,3,4,5-tetrahydrobenzo[f][1,4]oxazepine-8-carboxamide] | 100 to 500
20 | Cn1ccc(C(=O)N2CCOc3cc(C(=O)NO)ccc3C2)n1 [N-hydroxy-4-(1-methyl-1H-pyrazole-3-carbonyl)-2,3,4,5-tetrahydrobenzo[f][1,4]oxazepine-8-carboxamide] | ≤ 100
21 | O=C(NO)c1ccc2c(c1)OCCN(C(=O)C1CCC3(CCNCC3)CC1)C2 [N-hydroxy-4-(3-azaspiro[5.5]undecane-9-carbonyl)-2,3,4,5-tetrahydrobenzo[f][1,4]oxazepine-8-carboxamide] | ≤ 100
22 | O=C(NO)c1ccc2c(c1)OC[C@H](C(F)(F)F)N(C(=O)C1COC1)C2 [(R)-N-hydroxy-4-(oxetane-3-carbonyl)-3-(trifluoromethyl)-2,3,4,5-tetrahydrobenzo[f][1,4]oxazepine-8-carboxamide] | ≤ 100
23 | CC(C)(O)C(=O)N1CCOc2cc(C(=O)NO)ccc2C1 [N-hydroxy-4-(2-hydroxy-2-methylpropanoyl)-2,3,4,5-tetrahydrobenzo[f][1,4]oxazepine-8-carboxamide] | 100 to 500
24 | CC(C)[C@H]1c2ccc(C(=O)NO)cc2OCCN1C(=O)C1CCOCC1 [(S)-N-hydroxy-5-isopropyl-4-(tetrahydro-2H-pyran-4-carbonyl)-2,3,4,5-tetrahydrobenzo[f][1,4]oxazepine-8-carboxamide] | > 500
25 | C[C@H]1COc2cc(C(=O)NO)ccc2CN1C(=O)C1(C)COC1 [(S)-N-hydroxy-3-methyl-4-(3-methyloxetane-3-carbonyl)-2,3,4,5-tetrahydrobenzo[f][1,4]oxazepine-8-carboxamide] | ≤ 100
26 | C[C@H]1c2ccc(C(=O)NO)cc2OCCN1C(=O)C1CCOCC1 [(S)-N-hydroxy-5-methyl-4-(tetrahydro-2H-pyran-4-carbonyl)-2,3,4,5-tetrahydrobenzo[f][1,4]oxazepine-8-carboxamide] | ≤ 100
27 | O=C(NO)c1ccc2c(c1)OCCN(C(=O)C1(c3ccccc3Cl)CC1)C2 [4-(1-(2-chlorophenyl)cyclopropane-1-carbonyl)-N-hydroxy-2,3,4,5-tetrahydrobenzo[f][1,4]oxazepine-8-carboxamide] | ≤ 100
28 | O=C(NO)c1ccc2c(c1)OCCN(C(=O)C1CCS(=O)(=O)CC1)C2 [4-(1,1-dioxidotetrahydro-2H-thiopyran-4-carbonyl)-N-hydroxy-2,3,4,5-tetrahydrobenzo[f][1,4]oxazepine-8-carboxamide] | ≤ 100
29 | O=C(NO)c1cnc2c(n1)OCCN(C(=O)C1CCOCC1)C2 [N-hydroxy-8-(tetrahydro-2H-pyran-4-carbonyl)-6,7,8,9-tetrahydropyrazino[2,3-f][1,4]oxazepine-3-carboxamide] | 100 to 500
30 | COCC1(C(=O)N2CCOc3cc(C(=O)NO)ccc3[C@@H]2C)COC1 [(S)-N-hydroxy-4-(3-(methoxymethyl)oxetane-3-carbonyl)-5-methyl-2,3,4,5-tetrahydrobenzo[f][1,4]oxazepine-8-carboxamide] | ≤ 100
31 | CCCNc1c(C(=O)N2CCOc3cc(C(=O)NO)ccc3C2)sc2ccccc12 [N-hydroxy-4-(3-(propylamino)benzo[b]thiophene-2-carbonyl)-2,3,4,5-tetrahydrobenzo[f][1,4]oxazepine-8-carboxamide] | ≤ 100
32 | COC1(C(=O)N2Cc3ccc(C(=O)NO)cc3OC[C@@H]2C)CCC1 [(S)-N-hydroxy-4-(1-methoxycyclobutane-1-carbonyl)-3-methyl-2,3,4,5-tetrahydrobenzo[f][1,4]oxazepine-8-carboxamide] | ≤ 100
